PubChem BioAssay (NCI)
Where “and” joins values, the source holds several entries; their conditions need not be identical. Equal entries are not always repeated.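 Test compounds were applied to cells in 96-well plates for 48 hours at 5 doses. GI50 = concentration required for 50% inhibition of growth. TGI: concentration producing complete growth inhibition.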

What was measured:
Experiment in all cases: NCI tumour cell line growth inhibition, 48 h
[1] = system: MDA-MB-231 breast
[2] = system: UO-31 renal
[3] = system: IGROV1 ovarian
[4] = system: SR leukemia
[5] = system: SK-MEL-5 melanoma
[6] = system: SF-268 CNS
[7] = system: U251 CNS
[8] = system: M14 melanoma
[9] = system: EKVX NSCLC
[10] = system: SF-539 CNS
[11] = system: HL-60(TB) leukemia
[12] = system: SNB-75 CNS
[13] = system: K-562 leukemia
[14] = system: MDA-MB-435
[15] = system: A549 NSCLC
[16] = system: NCI-H522 lung
[17] = system: UACC-257 melanoma
[18] = system: CCRF-CEM leukemia
[19] = system: MOLT-4 leukemia
[20] = system: MCF7 breast
[21] = system: SNB-19 CNS
[22] = system: SF-295 CNS
[23] = system: OVCAR-8 ovarian
[24] = system: T-47D breast
[25] = system: NCI-H23 lung
[26] = system: OVCAR-4 ovarian
[27] = system: OVCAR-3 ovarian
[28] = system: 786-0 renal
[29] = system: NCI-H460 lung
[30] = system: NCI-H226 lung
[31] = system: BT-549 breast
[32] = system: MDA-N
[33] = system: OVCAR-5 ovarian
[34] = system: TK-10 renal
[35] = system: KM12 colon
[36] = system: ACHN renal
[37] = system: RXF 393 renal
[38] = system: HS 578T breast
[39] = system: DU-145 prostate
[40] = system: MALME-3M melanoma
[41] = system: PC-3 prostate
[42] = system: UACC-62 melanoma
[43] = system: HOP-92 NSCLC
[44] = system: NCI/ADR-RES ovarian
[45] = system: SK-MEL-28 melanoma
[46] = system: SK-OV-3 ovarian
[47] = system: SW-620 colon
[48] = system: A498 renal
[49] = system: HT29 colon
[50] = system: COLO 205 colon
[51] = system: SK-MEL-2 melanoma
[52] = system: CAKI-1 renal
[53] = system: RPMI-8226 leukemia
[54] = system: LOX IMVI melanoma
[55] = system: HCC-2998 colon
[56] = system: HCT-116 colon
[57] = system: HCT-15 colon
[58] = system: HOP-62 NSCLC
[59] = system: SN12C renal

## CC(C)=Nn1cnc2c1NC(C)(C)N=C2C(N)=O
[1]
  TGI: 7.64 µM
[2]
  TGI: > 10 µM
[3]
  TGI: > 10 µM
[4]
  TGI: > 10 µM
[5]
  TGI: > 10 µM
[6]
  TGI: > 10 µM
[7]
  TGI: > 10 µM
[8]
  TGI: > 10 µM
[9]
  TGI: > 10 µM
[10]
  TGI: > 10 µM
[11]
  TGI: > 10 µM
[12]
  TGI: > 10 µM
[13]
  TGI: > 10 µM
[14]
  TGI: > 10 µM
[15]
  TGI: > 10 µM
[16]
  TGI: > 10 µM
[17]
  TGI: > 10 µM
[18]
  TGI: > 10 µM
[19]
  TGI: > 10 µM
[20]
  TGI: > 10 µM
[21]
  TGI: > 10 µM
[22]
  TGI: > 10 µM
[23]
  TGI: > 10 µM
[24]
  TGI: 8.19 µM
[25]
  TGI: > 10 µM
[26]
  TGI: > 10 µM
[27]
  TGI: > 10 µM
[28]
  TGI: > 10 µM
[29]
  TGI: > 10 µM
[30]
  TGI: > 10 µM
[31]
  TGI: > 10 µM
[32]
  TGI: > 10 µM
[33]
  TGI: > 10 µM
[34]
  TGI: > 10 µM
[35]
  TGI: > 10 µM
[36]
  TGI: > 10 µM
[37]
  TGI: > 10 µM
[38]
  TGI: > 10 µM
[39]
  TGI: > 10 µM

## CCC(=C/[C@H](C)C/C=C/C(C)=C/[C@@H](C)C(=O)[C@@H](C)[C@H](O)[C@@H](C)CC)/C=C/[C@H]1CC=CC(=O)O1
[3]
  TGI: 3.96 µM and 10.4 µM
[5]
  TGI: 0.0182 µM
[40]
  TGI: 2.31 µM
[6]
  TGI: 2.79 µM and 12.2 µM
[41]
  TGI: 1.45 µM and 11.5 µM
[7]
  TGI: 1.4 µM and 11.6 µM
[8]
  TGI: 0.159 µM
[42]
  TGI: 0.00667 µM
[9]
  TGI: 12 µM and 14.3 µM
[43]
  TGI: 4.26 µM
[10]
  TGI: 0.174 µM and 1.35 µM
[44]
  TGI: 1.65 µM and 0.39 µM
[11]
  TGI: 0.0126 µM
[12]
  TGI: < 0.0012 µM
[45]
  TGI: 2.81 µM and 15.1 µM
[14]
  TGI: 0.166 µM
[46]
  TGI: 3.28 µM and 18.6 µM
[15]
  TGI: 6.32 µM and 13.5 µM
[47]
  TGI: 2.09 µM and 12.1 µM
[48]
  TGI: < 0.0012 µM
[16]
  TGI: < 0.0012 µM
[17]
  TGI: 2.22 µM and 18 µM
[18]
  TGI: 0.179 µM
[19]
  GI50: < 0.0012 µM
[20]
  TGI: 0.0033 µM
[21]
  TGI: 2.11 µM and 14 µM
[22]
  TGI: 1.48 µM and 13.8 µM
[23]
  TGI: 2.79 µM and 11.3 µM
[49]
  TGI: 2.48 µM and 10.7 µM
[24]
  TGI: 1.88 µM
[50]
  TGI: 0.0428 µM
[25]
  TGI: 5.26 µM and 13.3 µM
[51]
  TGI: < 0.0012 µM
[26]
  TGI: 12 µM
[28]
  TGI: 1.26 µM and 10.8 µM
[52]
  TGI: 2.88 µM
[53]
  GI50: < 0.0012 µM
[29]
  TGI: 1.26 µM and 1.64 µM
[54]
  TGI: 1.22 µM
[30]
  GI50: < 0.0012 µM
[55]
  TGI: < 0.0012 µM
[56]
  TGI: 0.002 µM
[31]
  TGI: 1.37 µM
[32]
  TGI: 0.00339 µM
[57]
  TGI: 1.78 µM
[33]
  TGI: 1.91 µM and 11 µM
[34]
  TGI: 1.91 µM and 14.3 µM
[58]
  TGI: 2.05 µM and 13 µM
[36]
  TGI: 1.89 µM and 10.9 µM
[37]
  TGI: < 0.0012 µM
[38]
  TGI: 7.02 µM and 2.38 µM
[39]
  TGI: < 0.0012 µM

## CCCCCCCCCCCCC1N=C(N)N2CCCC2=C1C(=O)OC (stereo not given)
[1]
  TGI: 4.38 µM
[2]
  TGI: 24.4 µM
[3]
  TGI: 7.94 µM
[4]
  TGI: > 100 µM
[5]
  TGI: 4.88 µM
[40]
  TGI: 3.64 µM
[6]
  TGI: 14.8 µM
[41]
  TGI: 3.95 µM
[7]
  TGI: 3.06 µM
[8]
  TGI: 3.16 µM
[42]
  TGI: 3.36 µM
[9]
  TGI: 35.4 µM
[43]
  TGI: 10.3 µM
[10]
  TGI: 13.2 µM
[44]
  TGI: 20.4 µM
[12]
  TGI: 3.05 µM
[45]
  TGI: 3.1 µM
[13]
  TGI: 2.91 µM
[14]
  TGI: 3.09 µM
[46]
  TGI: 23.8 µM
[15]
  TGI: 36.2 µM
[47]
  TGI: 3.05 µM
[48]
  TGI: 47.1 µM
[16]
  TGI: 3.26 µM
[17]
  TGI: 3.73 µM
[18]
  TGI: 3.89 µM
[19]
  TGI: 4.22 µM
[21]
  TGI: 3.41 µM
[22]
  TGI: 3.39 µM
[23]
  TGI: 3.37 µM
[49]
  TGI: 3.06 µM
[24]
  TGI: 3.73 µM
[50]
  TGI: 4.17 µM
[25]
  TGI: 6.17 µM
[51]
  TGI: 3.64 µM
[26]
  TGI: 5.86 µM
[27]
  TGI: 5.11 µM
[28]
  TGI: 3.04 µM
[52]
  TGI: 9.03 µM
[29]
  TGI: 3.23 µM
[30]
  TGI: 48.8 µM
[55]
  TGI: 3.25 µM
[56]
  TGI: 3.34 µM
[31]
  TGI: 35 µM
[32]
  TGI: 4.72 µM
[57]
  TGI: 3.11 µM
[33]
  TGI: 13 µM
[34]
  TGI: > 48.7 µM
[35]
  TGI: 3.94 µM
[58]
  TGI: 9.95 µM
[36]
  TGI: 19.5 µM
[37]
  TGI: 69.4 µM
[38]
  TGI: 4.17 µM
[39]
  TGI: 21.4 µM

## O=C1/C(=C/c2ccc(Cl)cc2)Oc2ccccc21
[1]
  TGI: > 100 µM
[2]
  TGI: 30.4 µM
[4]
  TGI: > 100 µM
[5]
  TGI: 42.1 µM
[6]
  TGI: > 100 µM
[7]
  TGI: > 100 µM
[8]
  TGI: > 100 µM
[42]
  TGI: > 100 µM
[9]
  TGI: 46.1 µM
[10]
  TGI: 48.8 µM
[11]
  TGI: > 100 µM
[12]
  TGI: 98.5 µM
[45]
  TGI: > 100 µM
[13]
  TGI: > 100 µM
[14]
  TGI: > 100 µM
[46]
  TGI: > 100 µM
[15]
  TGI: 35 µM
[47]
  TGI: > 100 µM
[16]
  TGI: 34.5 µM
[17]
  TGI: > 100 µM
[18]
  TGI: > 100 µM
[19]
  TGI: > 100 µM
[20]
  TGI: > 100 µM
[21]
  TGI: > 100 µM
[22]
  TGI: > 100 µM
[23]
  TGI: 89.5 µM
[49]
  TGI: > 100 µM
[24]
  TGI: 90.3 µM
[50]
  TGI: > 100 µM
[25]
  TGI: 73.1 µM
[26]
  TGI: > 100 µM
[27]
  TGI: > 100 µM
[28]
  TGI: 29.7 µM
[52]
  TGI: 12.6 µM
[53]
  TGI: > 100 µM
[29]
  TGI: > 100 µM
[30]
  TGI: 68 µM
[55]
  TGI: > 100 µM
[56]
  TGI: > 100 µM
[31]
  TGI: > 100 µM
[32]
  TGI: > 100 µM
[57]
  TGI: > 100 µM
[34]
  TGI: 64.3 µM
[35]
  TGI: > 100 µM
[59]
  TGI: > 100 µM
[58]
  TGI: 53.3 µM
[36]
  TGI: 43.4 µM
[37]
  TGI: 54.8 µM
[38]
  TGI: 74.7 µM
[39]
  TGI: 40.3 µM
